Test system: genotype 1b (Con-1) HCV replicon
Experiment: HCV Replicon Luciferase Assay
Type: cell-based
Conditions: Hepatitis C virus, 72 h; Huh-7 genotype 1b replicon, Renilla luciferase, 3 days incubation; read-out: EC50 1b (class)
Description: The cell lines used to evaluate compounds consist of a human hepatocyte derived cell line (Huh-7) that constitutively expresses a genotype 1b (Con-1) HCV replicon or a genotype 1b (Con-1) HCV replicon with an asparagine replacing the cysteine at amino acid 316, or a genotype 2a (JFH-1) replicon, containing a Renilla luciferase reporter gene. These cells were maintained in Dulbecco's modified Eagle medium (DMEM) containing 10% FBS, 100 U/mL penicillin/streptomycin and 1.0 mg/mL G418.
To evaluate compound efficacy, titrated compounds were transferred to sterile 384-well tissue culture treated plates, and the plates were seeded with HCV replicon cells (50 μL at a density of 2.4×10^3 cells/well) in DMEM containing 4% FBS (final DMSO concentration at 0.5%). After 3 days incubation at 37° C., cells were analyzed for Renilla Luciferase activity using the EnduRen substrate (Promega cat #E6485) according to the manufacturer's directions. Briefly, the EnduRen substrate was diluted in DMEM and then added to the plates to a final concentration of 7.5 μM. The plates were incubated for at least 1 h at 37° C. then read on a Viewlux Imager (PerkinElmer) using a luminescence program. The 50% effective concentration (EC50) was calculated using the four-parameter logistic Formula noted above.
Compound EC50 data is expressed as A: <100 nM; B=100-1000 nM; C>1000 nM).

For CNC(=O)c1c(-c2ccc(F)cc2)oc2cc(N(CC(F)F)S(C)(=O)=O)c(-c3cccc(C(=O)OC)c3)cc12 [Compound 7001], which EC50 is on record?
The EC50 was under 0.1 µM.

For CNC(=O)c1c(-c2ccc(F)cc2)oc2cc(N(CC(F)F)S(C)(=O)=O)c(-c3cccc(C(=O)NC(C)(C)C(F)(F)F)c3)cc12 [Compound 7003], which EC50 is on record?
The EC50 was under 0.1 µM.

For CNC(=O)c1c(-c2ccc(F)cc2)oc2cc(N(CC(F)F)S(C)(=O)=O)c(-c3cccc(C(=O)NC(CF)(CF)CF)c3)cc12 [Compound 7004], which EC50 is on record?
The EC50 was under 0.1 µM.

Which EC50 does the source give for CNC(=O)c1c(-c2ccc(F)cc2)oc2cc(N(CC=C(F)F)S(C)(=O)=O)c(-c3cccc(C(=O)OC)c3)cc12 [Compound 8001] here?
Its EC50 is under 0.1 µM.

Which EC50 does the source give for CNC(=O)c1c(-c2ccc(F)cc2)oc2cc(N(CCC(F)(F)F)S(C)(=O)=O)c(-c3cccc(C(=O)O)c3)cc12 [Compound 9002] here?
Its EC50 is over 1 µM.

Which EC50 does the source give for CNC(=O)c1c(-c2ccc(F)cc2)oc2cc(N(CCC(F)(F)F)S(C)(=O)=O)c(-c3cccc(C(=O)NCC(F)(F)C(F)(F)F)c3)cc12 [Compound 9003] here?
Its EC50 is under 0.1 µM.

For CNC(=O)c1c(-c2ccc(F)cc2)oc2cc(N(CCC(F)(F)F)S(C)(=O)=O)c(-c3cccc(C(=O)NC(C)(C)C(F)(F)F)c3)cc12 [Compound 9004], which EC50 is on record?
The EC50 was under 0.1 µM.

Which EC50 does the source give for CNC(=O)c1c(-c2ccc(F)cc2)oc2cc(N(CCC(F)(F)F)S(C)(=O)=O)c(-c3cccc(C(=O)NC(CF)(CF)CF)c3)cc12 [Compound 9005] here?
Its EC50 is under 0.1 µM.

Which EC50 does the source give for CNC(=O)c1c(-c2ccc(F)cc2)oc2cc(N(CCC(F)(F)F)S(C)(=O)=O)c(-c3cccc(C(=O)NC(C)(C)C#N)c3)cc12 [Compound 9006] here?
The EC50 was under 0.1 µM.

For CNC(=O)c1c(-c2ccc(F)cc2)oc2cc(N(CCC(F)(F)F)S(C)(=O)=O)c(-c3cccc(C(=O)NC(C)(C)CF)c3)cc12 [Compound 9007], which EC50 is on record?
Its EC50 is under 0.1 µM.

Same assay, conditions: Hepatitis C virus, 72 h; Huh-7 genotype 1b replicon, Renilla luciferase, 3 days incubation; read-out: EC50 (uM) 1b

Which EC50 does the source give for CNC(=O)c1c(-c2ccc(F)cc2)oc2cc(N(CCC(F)(F)F)S(C)(=O)=O)c(-c3cccc(C(=O)NCC(F)(F)C(F)(F)F)c3)cc12 [Compound 9003] here?
The EC50 was 0.0076 µM.

With CNC(=O)c1c(-c2ccc(F)cc2)oc2cc(N(CCC(F)(F)F)S(C)(=O)=O)c(-c3cccc(C(=O)NC(C)(C)C(F)(F)F)c3)cc12 [Compound 9004] as the compound, how does the EC50 read?
The EC50 was 0.0106 µM.

Test system: HCV
Experiment: not given
Conditions: combination regimens with interferon and ribavirin; cited from earlier work

For CNC(=O)c1c(-c2ccc(F)cc2)oc2cc(N(CCO)S(C)(=O)=O)c(C3CC3)cc12 [HCV-796], which “toxicity during extended dosing” value is on record?
The value was “hepatic toxicity”.

Same assay, conditions: combination therapy, patients; cited from earlier work

With alpha-interferon and ribavirin as the compound, how does the “sustained efficacy, patients” value read?
Its value is 40%.
